# Assay results: publication PMC7344947, “Phytochemicals and Enzyme Inhibitory Capacities of the Methanolic Extracts from the Italian Apple Cultivar Mela Rosa dei Monti Sibillini” (Pharmaceuticals, 2020)
# Molecular target: T1, α-Glucosidase from Saccharomyces cerevisiae (Saccharomyces cerevisiae, UniProt P53341)
# T1 construct: purchased Sigma-Aldrich (Madrid, Spain)
# Test: α-Glucosidase inhibition assay (pNPG, absorbance 405 nm)
# Type: biochemical
# Settings: 1 mg/mL
# Protocol: α-Glucosidase inhibition assay was performed following the previous method. Each 96-well microplate contained: 50 μL apple extract or the reference at different concentration and 100 μL of α-GLU (1U/mL) in phosphate buffer (pH 6.9). After 10 min, 50 μL of PNPG (50 μL) were added and incubated for 20 min at 37 °C. The absorbance was read at 405 nm. The percentage inhibition of α-glucosidase was calculated using the following formula:% inhibition = [(Abscontrol − AbsSample)/Abscontrol] × 100(1)
# T1 sequence (P53341 whole entry): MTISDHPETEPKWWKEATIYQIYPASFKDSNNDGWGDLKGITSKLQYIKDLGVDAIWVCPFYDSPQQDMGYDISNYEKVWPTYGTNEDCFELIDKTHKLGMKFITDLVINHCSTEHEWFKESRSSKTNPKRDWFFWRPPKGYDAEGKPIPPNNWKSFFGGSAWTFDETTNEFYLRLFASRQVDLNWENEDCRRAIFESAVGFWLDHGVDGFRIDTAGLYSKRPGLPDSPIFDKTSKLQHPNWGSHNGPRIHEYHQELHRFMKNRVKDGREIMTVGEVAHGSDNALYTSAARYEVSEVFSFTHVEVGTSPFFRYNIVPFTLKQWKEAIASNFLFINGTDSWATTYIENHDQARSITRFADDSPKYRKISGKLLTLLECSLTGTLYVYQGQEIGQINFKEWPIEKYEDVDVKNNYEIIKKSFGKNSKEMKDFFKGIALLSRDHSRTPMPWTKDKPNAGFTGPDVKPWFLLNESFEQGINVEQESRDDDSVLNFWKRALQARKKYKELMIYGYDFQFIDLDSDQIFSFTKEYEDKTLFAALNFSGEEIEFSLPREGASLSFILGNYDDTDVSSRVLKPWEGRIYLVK
smiles,measurement,value
C[C@H]1O[C@H](O[C@H]2[C@H](O)[C@@H](O)[C@@H](O[C@H]3[C@H](O)[C@@H](O)C(O)O[C@@H]3CO)O[C@@H]2CO)[C@H](O)[C@@H](O)[C@@H]1N[C@H]1C=C(CO)[C@@H](O)[C@H](O)[C@H]1O (stereo partly shown) [Acarbose],inhibition at 1000 µg/mL,100%
